Reference: patent US20040191907A1, “Cultured cells of Ficus stipulata Thunb. (=Ficus thunbergii) and a method for culturing tissues of the Ficus stipulata Thunb. by using said cultured cells” (HIROSHIMA UNIVERSITY, priority 2001, published 2004)

Assays:
[1] = test system: cut pieces from stem apexes, nodes and stem portions of Ficus stipulata Thunb.; experiment: Experiment 2: redifferentiation condition, polyblasts and buds formed at stem apex cut pieces; assay type: cell-based; conditions: for Number of cut pieces* in which polyflasts were formed at a stem apex: of 4 cut pieces; for Number of cut pieces* in which polyflasts were formed at a stem apex / Number of buds formed: six weeks; for Number of buds formed: stem apex; for redifferential state: used as the plant hormone, bright condition, WP culture medium
Procedure: A redifferentiation condition most suitable for the introduction of a gene into the Ficus stipulata Thunb. was examined, and the gene was tried introduced thereinto.
First, the redifferentiation condition was examined. As the Ficus stipulata Thunb., one sterilized and aseptically subcultured was used. The Ficus stipulata Thunb. aseptically grown (4 to 6 weeks after implanting the cutting) used, and cut pieces were prepared from stem apexes, nodes and stem portions, and implanted in the culture medium. Six weeks later, the number and the shape of buds were observed. In culturing the Ficus stipulata Thunb., 1/3 of a block of Florialite (a mixture of vermiculite and cellulose fibers) was added into a test tube (30×200 mm), to which 15 ml of the MS culture medium or the WP culture medium was added. The test tube was closed with a polypropylene cap, which was placed in an autoclave.
A braird appearing in the Ficus stipulata Thunb. having been aseptically subcultured in an Agripot (a plastic container) was cut by about 2 to 3 cm, its cut section was immersed into a 1 g/l solution (1 g/l) of 4-(3-indolyl)butyric acid, and the cut piece was implanted in the test piece thus prepared, and subjected to 4 to 8 week culturing.
The culturing conditions were: atmospheric temperature 25° C., illumination intensity 30˜40 μEm^−2s^−1, a bright condition of 30˜40μEm^−2s^−1 for 15 hours and a dark condition of 1˜2μEm^−2s^−1 for 9 hours.
The MS culture medium or the WP culture medium was used as a fundamental culture medium. Sucrose 2% was added into each of the culture media, thereby adjusting the pH values of the MS culture medium and the WP culture medium to 5.6 and 5.2, respectively. Further, Gellan Gum 3% was added to the culture medium, and it was autoclaved at 120° C. for 15 minutes, thereby preparing a solid culture medium. As plant hormones, […] (NAA), benzylaminopurine (BA), thidiazuron(TDZ), abscisic acid (ABA) and silver nitrate (AgNO3) were used.

[2] = test system: cut pieces of the leaf, shoot and root tissues of the Ficus stipulata Thunb.; experiment: Experiment 1: polyblast formation from cut pieces cultured on medium containing thidiazuron and/or benzyladenine; assay type: cell-based; conditions: for Number of cut piece* (cut pieces with polyblast formation × 100/cut piece) / Number of shoots/cut piece: one month after the culturing; for induction of the Ficus stipulata Thunb. (polyblast formation / redifferentiation): culture medium containing at least one of TDZ and/or BA
Procedure: A culture medium in which the MS culture medium or the WP culture medium was used as a fundamental culture medium and 1% sucrose and 0.3% Gellan Gum were added as the carbonaceuous source and a gelling agent, respectively, was used.
Cut pieces, 0.5˜1 mm long, were prepared from leaf, shoot and root tissues of the Ficus stipulata Thunb. asepatically cultured. The cut pieces of the leaf, shoot and root tissues of the Ficus stipulata Thunb. thus prepared were implanted on a culture medium containing thidiazuron and/or benzyladenine as plant hormones, thereby culturing the Ficus stipulata Thunb. One month after the culturing, it was observed that polyblasts were formed from the cut pieces. The polyblasts were cut out, their cut edge were coated with iondoleacetic acid, and the polyblasts were implanted into the above culture medium or a culture containing pearlite and vermiculite, and allowed to take roots.

O=C(Nc1ccccc1)Nc1cnns1 [TDZ, thidiazuron]
Number of cut pieces* in which polyflasts were formed at a stem apex ([1]; BA 0 nM, TDZ 1 nM): 4
Number of buds formed ([1]; BA 0 nM, TDZ 1 nM): 1.5 ± 1.0
Number of cut pieces* in which polyflasts were formed at a stem apex ([1]; BA 0 nM, TDZ 10^2 nM): 4
Number of buds formed ([1]; BA 0 nM, TDZ 10^2 nM): 2.5 ± 0.6
Number of cut pieces* in which polyflasts were formed at a stem apex ([1]; BA 0 nM, TDZ 10^4 nM): 4
Number of buds formed ([1]; BA 0 nM, TDZ 10^4 nM): 1.5 ± 1.0
redifferential state [1]: good redifferential state
Number of cut piece* (cut pieces with polyblast formation × 100/cut piece) ([2]; BA 0 nM, TDZ 1 nM): 100
Number of shoots/cut piece ([2]; BA 0 nM, TDZ 1 nM): 1.5 ± 1.0
Number of cut piece* (cut pieces with polyblast formation × 100/cut piece) ([2]; BA 0 nM, TDZ 1 × 10^2 nM): 100
Number of shoots/cut piece ([2]; BA 0 nM, TDZ 1 × 10^2 nM): 2.5 ± 0.6
Number of cut piece* (cut pieces with polyblast formation × 100/cut piece) ([2]; BA 0 nM, TDZ 1 × 10^4 nM): 100
Number of shoots/cut piece ([2]; BA 0 nM, TDZ 1 × 10^4 nM): 1.5 ± 1.0
induction of the Ficus stipulata Thunb. (polyblast formation / redifferentiation) [2]: could be induced at a high probability

c1ccc(CNc2ncnc3nc[nH]c23)cc1 [BA, benzyladenine]
Number of cut pieces* in which polyflasts were formed at a stem apex ([1]; BA 8.9 nM, TDZ 0 nM): 2
Number of buds formed ([1]; BA 8.9 nM, TDZ 0 nM): 1.8 ± 2.4
Number of cut pieces* in which polyflasts were formed at a stem apex ([1]; BA 22.2 nM, TDZ 0 nM): 4
Number of buds formed ([1]; BA 22.2 nM, TDZ 0 nM): 3.5 ± 0.6
Number of cut pieces* in which polyflasts were formed at a stem apex ([1]; BA 35.5 nM, TDZ 0 nM): 4
Number of buds formed ([1]; BA 35.5 nM, TDZ 0 nM): 2.5 ± 1.0
Number of cut pieces* in which polyflasts were formed at a stem apex ([1]; BA 44.4 nM, TDZ 0 nM): 4
Number of buds formed ([1]; BA 44.4 nM, TDZ 0 nM): 3.8 ± 0.5
redifferential state [1]: good redifferential state
Number of cut piece* (cut pieces with polyblast formation × 100/cut piece) ([2]; BA 9 nM, TDZ 0 nM): 50
Number of shoots/cut piece ([2]; BA 9 nM, TDZ 0 nM): 1.8 ± 2.4
Number of cut piece* (cut pieces with polyblast formation × 100/cut piece) ([2]; BA 22 nM, TDZ 0 nM): 100
Number of shoots/cut piece ([2]; BA 22 nM, TDZ 0 nM): 3.5 ± 0.6
Number of cut piece* (cut pieces with polyblast formation × 100/cut piece) ([2]; BA 36 nM, TDZ 0 nM): 100
Number of shoots/cut piece ([2]; BA 36 nM, TDZ 0 nM): 2.5 ± 1.0
Number of cut piece* (cut pieces with polyblast formation × 100/cut piece) ([2]; BA 44 nM, TDZ 0 nM): 100
Number of shoots/cut piece ([2]; BA 44 nM, TDZ 0 nM): 3.8 ± 0.5
induction of the Ficus stipulata Thunb. (polyblast formation / redifferentiation) [2]: could be induced at a high probability
